Patent US11325955B2, “Stabilized anti-microbial peptides for the treatment of antibiotic-resistant bacterial infections” (priority 2017, dated 2022)
Converted amounts (≈) assume the structure as drawn. Where two headings read alike, the source gives them in different places. Positions of bridges follow the written chain, without caps; N, C: chain ends. Non-standard residues stand in square brackets, D forms with d. Residues, ends and D or L forms follow the SMILES beside them. S5 = C=CCCC[C@](C)(N)C(=O)O; Nle = CCCC[C@H](N)C(=O)O

How the values were obtained:
P aeruginosa = assay type: cell-based
Description: (§1) The following microbroth dilution protocol was adapted to determine the minimum inhibitory concentration (MIC) of each peptide. First, Mueller-Hinton broth (MHB) was passed through an anion exchange column to remove polyanionic species and generate refined MHB. […] Briefly, bacterial cells were grown overnight in refined MHB at 37° C. and then diluted and allowed to grow again for several hours. Serial dilutions of peptide stocks in water (10 μl) were prepared using clear round-bottom polypropylene 96-well plates. Then 90 μl of bacteria in refined MHB was added to give a final inoculum of 5×10^5 CFU/ml. The plates were then covered with porous tape to reduce evaporation, and incubated for 20-24 hours at 37° C. The MIC is the minimum peptide concentration at which no visible growth was observed.

E coli = assay type: cell-based
Description: as §1

B cereus = assay type: cell-based
Description: as §1

S aureus = assay type: cell-based
Description: as §1

A baumannii = assay type: cell-based
Description: as §1

[1] = system: primary human renal proximal tubule epithelial cells (pRPTECs)
Description: (§2) In one embodiment, pRPTECs are seeded at a density of 10,000 cells per well on 96 well plates and incubated for 48 hours at 37° C. Cells are then treated with different concentrations of the StAMP and incubated for another 24-to-48 hour period. Cell viability is then determined and/or lactate dehydrogenase (LDH) release is measured.
(§3) Briefly, pRPTECs in complete growth cell medium were seeded in a 96 well plate at a density of 10,000 cells per well and incubated at 37° C. for 48 hours. Complete medium was then removed and replaced with a toxicity assay medium to which various concentrations of StAMP were added. Cells were then further incubated for 24 to 48 hours after which cell medium was collected and assayed for the presence of Lactate Dehydrogenase (LDH) using a Cytotoxicity Detection Kit (LDH) (Roche).

[2] = system: human red blood cells (RBCs); assay: Hemolytic activity assay; assay type: cell-based; settings: peptide at 25 μg/ml, 1 hour at 37° C.
Description: For the determination of hemolytic activity, human blood samples were centrifuged to isolate red blood cells (RBCs), which are then washed and suspended in phosphate-buffered saline to yield a 1% (v/v) suspension. The suspension was then added to serial dilutions of peptide stocks in water in clear round-bottom polypropylene 96-well plates and the plates were incubated for 1 hour at 37° C. After incubation, the plates were centrifuged and the supernatant was isolated to determine the amount of hemoglobin released using a spectrophotometer (570 nm), according to the equation: % Hemolysis=(Treated Absorbance−Untreated Control Absorbance)/(1% Triton-X100 Treated Absorbance−Untreated Control Absorbance). The minimum hemolytic concentration (MHC) is the peptide concentration at which there is less than 1% hemoglobin release.

[3] = system: E. coli clinical isolates that harbor the MCR-1 plasmid; assay type: cell-based
Description: StAMPs were screened against a panel of MDR clinical samples obtained from the Antimicrobial Resistance Isolate Bank of the Centers for Disease Control and Prevention (Atlanta, Ga.).
as §1
The first three StAMPs of Table 2 in Example 3 were then tested against 39 clinical isolates of A. baumannii with various degrees of colistin resistance (Table 3, 4).

[4] = system: primary human renal proximal tubule epithelial cells (pRPTECs); assay: Renal toxicity assay (pRPTEC lysis, LDH release)
Description: as §2, §3

## CC(C)[C@@H]1NC(=O)[C@@](C)(NC(=O)[C@H](C)NC(=O)[C@H](CCCCN)NC(=O)CNC(=O)[C@H](Cc2ccccc2)NC(=O)[C@H](CCCCN)NC(=O)[C@H](CCCCN)NC(=O)[C@H](CCCCN)NC(=O)[C@H](CO)NC(=O)[C@H](Cc2c[nH]cn2)NC(=O)[C@]2(C)CCCC=CCCC[C@](C)(NC(=O)CN)C(=O)NCC(=O)N[C@@H](CCCCN)C(=O)N[C@@H](Cc3ccccc3)C(=O)N2)CCCC=CCCC[C@@](C)(C(=O)N[C@@H](CCCCN)C(=O)N[C@@H](CC(N)=O)C(=O)N[C@@H](CO)C(N)=O)NC(=O)[C@H](CCC(=O)O)NC(=O)CNC1=O [Mag(i+4)1,15(A9K, B21K), GXGKFXHSKKKFGKAXVGEXKNS] (H-G[S5]GKF[S5]HSKKKFGKA[S5]VGE[S5]KNS-NH2; staple 2-6, 16-20)
P aeruginosa
  MIC P aeruginosa: 12.5 µg/mL (≈ 4.93 µM)
E coli
  MIC E coli: 3.1 µg/mL (≈ 1.22 µM)
B cereus
  MIC B cereus: 35.4 µg/mL (≈ 14 µM)
S aureus
  MIC S aureus: >50 µg/mL
A baumannii
  MIC A baumannii: 1.6 µg/mL (≈ 0.631 µM)
[1]; 90 minute incubation, FIG. 2
  pRPTEC lysis (% LDH release) compared to Mag(i+4)1,15(A9K): markedly reduced lytic activity toward pRPTECs
[1]; 48 hours incubation, FIG. 3
  pRPTEC lysis (% LDH release), long-term lytic activity: lowered long-term lytic activity

## CCCC[C@H](NC(=O)[C@]1(C)CCCC=CCCC[C@](C)(NC(=O)[C@H](C)NC(=O)[C@H](CCCCN)NC(=O)CNC(=O)[C@H](Cc2ccccc2)NC(=O)[C@H](CCCCN)NC(=O)[C@H](CCCCN)NC(=O)[C@H](CCCCN)NC(=O)[C@H](CO)NC(=O)[C@H](Cc2c[nH]cn2)NC(=O)[C@]2(C)CCCC=CCCC[C@](C)(NC(=O)CN)C(=O)NCC(=O)N[C@@H](CCCCN)C(=O)N[C@@H](Cc3ccccc3)C(=O)N2)C(=O)N[C@@H](C(C)C)C(=O)NCC(=O)N[C@@H](CCC(=O)O)C(=O)N1)C(=O)N[C@@H](CC(N)=O)C(=O)N[C@@H](CO)C(N)=O [Mag(i+4)1,15(A9K), GXGKFXHSKKKFGKAXVGEXBNS] (H-G[S5]GKF[S5]HSKKKFGKA[S5]VGE[S5][Nle]NS-NH2; staple 2-6, 16-20)
[2]
  % Hemolysis at 25 μg/ml: 1.9%
P aeruginosa
  MIC P aeruginosa: 3.1 µg/mL (≈ 1.23 µM)
E coli
  MIC E coli: 1.6 µg/mL (≈ 0.635 µM)
B cereus
  MIC B cereus: 6.2 µg/mL (≈ 2.46 µM)
S aureus
  MIC S aureus: 50 µg/mL (≈ 19.8 µM)
A baumannii
  MIC A baumannii: 1.6 µg/mL (≈ 0.635 µM)
[3]; E. coli CDC Bank# 346, contains MCR-1 plasmid
  Antimicrobial Activity MIC: 1.6 µg/mL
[3]; E. coli CDC Bank# 349, contains MCR-1 plasmid
  Antimicrobial Activity MIC: 3.1 µg/mL
[4]
  toxicity on pRPTECs (membranolysis): could cause membranolysis of pRPTECs at relatively low concentrations
